Reference: article PMC8252049 (Chemmedchem, 2021)
pIC50: −log10 of the molar value.

Tests used:
[1] = target: T1, rat liver TrxR1 (cytosolic thioredoxin reductase) (Rattus norvegicus, UniProt O89049); assay: DTNB reduction, absorbance […] nm; assay type: biochemical
T1 sequence (O89049 1-499): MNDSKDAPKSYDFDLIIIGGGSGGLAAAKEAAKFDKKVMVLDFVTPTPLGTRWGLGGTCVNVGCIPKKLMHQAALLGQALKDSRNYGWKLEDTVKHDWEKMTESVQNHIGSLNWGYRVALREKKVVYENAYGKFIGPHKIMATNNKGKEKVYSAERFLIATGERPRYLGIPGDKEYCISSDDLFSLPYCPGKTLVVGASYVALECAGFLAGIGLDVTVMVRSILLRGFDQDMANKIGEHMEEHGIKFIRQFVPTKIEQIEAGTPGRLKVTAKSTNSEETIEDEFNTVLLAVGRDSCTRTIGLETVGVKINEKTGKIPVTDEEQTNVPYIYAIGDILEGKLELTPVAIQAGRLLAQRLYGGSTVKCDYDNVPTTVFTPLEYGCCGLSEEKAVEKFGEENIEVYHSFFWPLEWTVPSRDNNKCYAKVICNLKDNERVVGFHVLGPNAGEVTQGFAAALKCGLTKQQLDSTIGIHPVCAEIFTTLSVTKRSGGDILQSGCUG

[2] = target: rat liver TrxR2 (mitochondrial thioredoxin reductase) (Rattus norvegicus, UniProt Q9Z0J5); assay: DTNB reduction, absorbance […] nm; assay type: biochemical
Chain of rat liver TrxR2 (mitochondrial thioredoxin reductase) (Q9Z0J5 37-526): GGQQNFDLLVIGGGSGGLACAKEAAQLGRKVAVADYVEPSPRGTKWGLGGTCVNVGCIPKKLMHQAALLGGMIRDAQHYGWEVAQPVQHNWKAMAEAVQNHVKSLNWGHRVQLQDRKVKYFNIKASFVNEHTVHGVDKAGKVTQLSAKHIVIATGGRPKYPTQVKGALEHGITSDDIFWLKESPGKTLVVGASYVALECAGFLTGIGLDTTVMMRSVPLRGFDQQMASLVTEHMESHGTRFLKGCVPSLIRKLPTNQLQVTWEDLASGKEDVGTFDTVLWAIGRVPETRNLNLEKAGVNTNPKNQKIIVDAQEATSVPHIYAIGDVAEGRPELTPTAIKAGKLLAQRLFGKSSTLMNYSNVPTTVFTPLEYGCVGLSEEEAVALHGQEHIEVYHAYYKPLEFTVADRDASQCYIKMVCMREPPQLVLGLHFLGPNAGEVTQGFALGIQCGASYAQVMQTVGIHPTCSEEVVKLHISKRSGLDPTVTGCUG

Compound	pIC50 [1]	pIC50 [2]
[NH2][Pt]([NH2])([Cl])[Cl] [cisplatin]	7.65	6.39
trans-[PtBr2(NHBz2)(PPh3)] [compound 2]	8.59	
trans-[PtBr2(NHBzBu)(PPh3)] [compound 1]	8.64	
